“Also recorded” adds a separate entry of the source.
Columns and labels:
[1] = test system: JAK2V617F-induced PV in mice; conditions: Chen et al., Cancer Research 77(1):164-174; cited from earlier work
[2] = test system: human CD34+ cells from Polycythemia Vera (PV) patients; conditions: Chen et al., Cancer Research 77(1):164-174; cited from earlier work
[3] = test system: JAK2V617F-expressing Ba/F3 cells; assay: Cell growth, trypan blue exclusion cell count; type: cell-based, mouse; conditions: various doses (10-40 μM), 24 and 48 hours
Description: (§1) A mouse Ba/F3 cell line transduced with pMSCV-IRES-GFP was used as a control. Mouse JAK2V617F-GFP-expressing Ba/F3 cell line was kindly provided by Dr. Ross Levine (Human Oncology and Pathogenesis Program, Memorial Sloan-Kettering Cancer Center, New York, NY). Human JAK2V617F-expressing HEL cell line was purchased from ATCC. Cell lines were cultured in RPMI-1640 medium containing 10% FCS and 50 μmol/L 2-mercaptoethanol. Ba/F3 cell line was cultured in the medium mentioned above with 10 ng/ml IL3. C57BL/6J mice were obtained from The Jackson Laboratory.
(§2) Cell numbers were counted in duplicates by trypan blue (Sigma-Aldrich) exclusion at 24 h and 48 h, respectively. FACS analysis was applied for cell cycle test using Hoechst and Pyronin (Sigma-Aldrich) staining, and for apoptosis assay staining with Annexin V and 7-AAD (eBiosciences) according to the manufacturer's instructions. Results are expressed as the mean±SD.

Ba/F3 cells = assay: Cell growth, trypan blue exclusion cell count; type: cell-based, mouse; conditions: various doses (10-40 μM), 24 and 48 hours
Description: as §1, §2

[4] = test system: JAK2V617F-induced PV mice
Description: The bone marrow cells from donor mice, pretreated with 5-fluorouracil (5-FU), were infected with retrovirus containing pMSCV-JAK2V617F-GFP under conditions for the induction of PV as described previously, followed by transplantation of the transduced cells into C57BL/6J recipient mice.
To test this hypothesis, bone marrow cells (BM) were collected for FCM analysis after 4 months treatment.
PV model was induced in mice as follows: Bone marrow cells from 5-FU-treated (200 mg/kg) donor mice were transduced twice with JAK2V617F retrovirus in the presence of IL-3, IL-6, and stem cell factor (SCF). The recipient mice received 1,100 cGy lethal gamma irradiation (given by 2 split 550-cGy doses), followed by 2.0×10^6 cells transplantation via tail vein injection.
Hematopoietic cells were collected from peripheral blood and bone marrow of the PV mice, and red blood cells (RBCs) were eliminated using RBC lysis buffer (pH 7.4). Then the cells were stained with fluorescence-labeled antibodies (Gr−1 for neutrophils, c-kit and Sca−1 for stem cells) and subjected to FACS analysis. These antibodies were purchased from eBioscience Biotechnology. Data were acquired on a FACS Calibur flow cytometric analyzer (Becton Dickinson).
Water was used as placebo.

HEL cells [5] = assay: Cell-cycle progression by FACS (Hoechst and Pyronin); type: cell-based, human
Description: as §1, §2

[6] = test system: JAK2V617F-expressing human HEL cells; assay: Cell growth, trypan blue exclusion cell count; type: cell-based; conditions: various doses (10-40 μM), 24 and 48 hours
Description: as §1, §2

HEL cells [7] = assay: Apoptosis assay by FACS (Annexin V and 7-AAD); type: cell-based, human; conditions: compared with Ba/F3 cells
Description: as §1, §2

parental Ba/F3 cells = assay: Cell-cycle progression by FACS (Hoechst and Pyronin); type: cell-based, mouse; conditions: parental Ba/F3 cells that do not express JAK2V617F
Description: as §1, §2

Ba/F3-JAK2V617F cells [8] = assay: as above; type: cell-based, mouse
Description: as §1, §2

K562 cells = conditions: Yektaei-Karin et al. 2017; cited from earlier work
Ba/F3-JAK2V617F cells [9] = assay: Apoptosis assay by FACS (Annexin V and 7-AAD); type: cell-based, mouse; conditions: compared with Ba/F3 cells
Description: as §1, §2

[10] = test system: primary CD34+ blood cells from two CML patients; conditions: Yektaei-Karin et al. 2017; cited from earlier work
KCL22 cells = conditions: Yektaei-Karin et al. 2017; cited from earlier work
KU812 cells = conditions: Yektaei-Karin et al. 2017; cited from earlier work
[11] = PV mice, 150 mg/kg once a day by gavage, vs placebo
[12] = PV mice, 150 mg/kg once a day by gavage, vs placebo, from 3rd month post treatment
[13] = PV mice, 150 mg/kg once a day by gavage, vs placebo, 150 mg/kg
[14] = PV mice, after 4 months treatment, vs placebo

For `CC(c1cc2ccccc2s1)N(O)C(N)=O` (centres unmarked) [Zileuton], the “development of PV in mice” value [1] is listed as “attenuates the development of PV” and the “proliferation of human CD34+ cells from PV patients” value [2] is listed as “reducing proliferation”.
With `CC(C)(O)c1ccccc1CC[C@@H](SCC1(CC(=O)[O-])CC1)c1cccc(/C=C/c2ccc3ccc(Cl)cc3n2)c1.[Na+]` [Montelukast, (R-(E))-1-(((1-(3-(2-(7-Chloro-2-quinolinyl)ethenyl)phenyl)-3-(2-(1-hydroxy-1-methylethyl)phenyl)propyl)thio)methyl)-cyclopropaneacetic acid] the cell growth [3] was “dose-dependent growth inhibition”, the cell growth (Ba/F3 cells) was “dose-dependent growth inhibition” and the “non GFP (GFP-) cells (FIG. 5)” value ([4]; PV mice vs placebo, at 10 weeks) was “showed a loss”. The “GFP+ cells (FIG. 5)” value ([4]; PV mice vs placebo, by 6 and 10 weeks post treatment) was “loss of the GFP+ cells”, the “level of PLT” value [4, 11] was “did not significantly affect” and the “level of RBC” value [4, 11] was “did not significantly affect”. For the same compound, the “GFP+Gr-1+ PV cell number in peripheral blood” value [4, 12] was “increased more slowly”, the “GFP+Gr-1+ PV cell percentage in peripheral blood” value [4, 12] was “increased more slowly” and the HCT [4, 13] was “had an inhibitor compound effect”. For the same compound, the HGB [4, 13] was “had an inhibitor compound effect”, the “fibrosis in bone marrow” value [4, 13] was “efficiently relieved the fibrosis; also recorded: efficiently relieved fibrosis morphology” and the “GFP-Gr-1+ cell number in peripheral blood” value ([4]; PV mice, 150 mg/kg once a day by gavage, vs placebo, normal cells, 150 mg/kg) was “didn't show significant difference; also recorded: did not show a significant difference”. The “GFP+ PV cell number in BM” value [4, 14] was “dramatic decrease”, the “GFP+ PV cell percentage in BM” value [4, 14] was “dramatic decrease” and the cell-cycle progression (HEL cells [5]) was “blockade of cell-cycle progression”. The cell growth [6] was “dose-dependent growth inhibition”, the apoptosis (HEL cells [7]) was “more dramatic apoptosis” and the cell-cycle progression (parental Ba/F3 cells) was “no significant cell-cycle block effect”. The cell-cycle progression (Ba/F3-JAK2V617F cells [8]) was “blockade of cell-cycle progression”, the cell growth (K562 cells) was “significantly reduced the growth” and the apoptosis (Ba/F3-JAK2V617F cells [9]) was “more dramatic apoptosis”. For the same compound, the cell growth [10] was “significantly reduced the growth”, the cell growth (KCL22 cells) was “significantly reduced the growth” and the cell growth (KU812 cells) was “significantly reduced the growth”.

Source: patent US20230355608A1, “TARGETING POLYCYTHEMIA VERA (PV)-INITIATING CELLS BY BLOCKING LEUKOTRIENE BINDING TO THEIR RECEPTORS” (UNIVERSITY OF MASSACHUSETTS, priority 2020, published 2023)
